According to patent publication US20230150951A1, “2,5- OR 2,6-DISUBSTITUTED HYDROQUINONE DERIVATIVES WITH AT LEAST ONE CARBOXY, SULFO OR AMIDO GROUP USEFUL AS MEDICAMENTS” (OM PHARMA SA, priority 2020, published 2023):

Tests used:
Assay type in all cases: cell-based
FGF-2 = biological target: T1, FGF-2 (Homo sapiens, UniProt P09038); experiment: FGF-2 induced sprouting of HUVEC, spheroid-based cellular angiogenesis assay; details: FGF-2 25 ng/mL preincubated with compound, 24 h
T1 construct: purchased Peprotech 100-18C
T1 sequence (P09038 134-288): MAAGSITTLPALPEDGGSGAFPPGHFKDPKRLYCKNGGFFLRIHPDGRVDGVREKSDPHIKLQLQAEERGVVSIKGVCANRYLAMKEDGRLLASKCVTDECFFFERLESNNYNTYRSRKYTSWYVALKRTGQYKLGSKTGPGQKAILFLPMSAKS
Protocol: (§1) Aim of this in vitro method is to assess compounds effects on FGF-2, FGF-1, or VEGF-A induced sprouting of human umbilical vein endothelial cells (HUVEC) in the spheroid-based cellular angiogenesis assay. Before adding the growth factors to the cells, they were preincubated with the compound. Sunitinib was tested as a control (without preincubation).
(§2) IC50 values determined for the tested compounds are expressed in microM [μM] and the values for the inhibition of FGF-1, FGF2 and VEGF-A induced growth (sprouting) are listed after each compound in the examples after chemical characterization.
(§3) Sprouting test was performed on the compounds dissolved in DMSO to reach 100-fold concentrated stock solutions and dissolved in culture media. Sunitinib as reference compound was provided by ProQinase GmbH. Growth factors were purchased from rhFGF-basic (FGF-2), Peprotech, New Jersey, USA, #100-18C, Lot #0415571; rhFGF-acidic (FGF-1), Peprotech, New Jersey, USA, #100-17A, Lot #031207; hVEGF-A165 (ProQinase GmbH, Freiburg, Germany; 05.02.2010) were used for stimulation of HUVEC cells growth.
(§4) Test system: Endothelial cells from human umbilical vein (HUVEC) from pooled donors were stored frozen with 70% medium, 20% FCS, 10% DMSO at about 1×10^6 cells/ampoule. HUVEC cells, primary human umbilical vein endothelial cells (PromoCell, Heidelberg, Germany), were used after passage 3 to 4. Morphology of the cells are adherent, cobblestone-like growing as monolayer and were cultured in endothelial cell growth and basal medium (ECGM/ECBM, PromoCell). The subculture was split 1:3; every 3-5 days, seed out at ca. 1×10^4 cells/cm^2 and incubated at 37° C. with 5% CO2 with a doubling time 24-48 hours
(§5) Dilution of test compounds: 100× concentrated solutions (concerning to the final assay concentrations) of each test compound were prepared with the appropriate solvent (in DMSO or in water). These 100×compound solutions were further diluted in endothelial cell growth and basal medium (ECBM) 1:7.5 to get a 13.33× concentrated solution. 75 μl of the 13.33×solution was subsequently mixed with 25 μl of 40× concentrated stimulus (solved in ECBM), resulting in a 10×concentrated stimulus/compound mixture. This mixture (100 μl) was incubated for 30 min at 37° C. and then added to 900 μl gel, containing the HUVEC spheroids (resulting in the final assay concentration).
(§6) Test method: the experiments were pursued in modification of the originally published protocol (Korff and Augustin: J Cell Sci 112: 3249-58, 1999). In brief, spheroids were prepared as described (Korff and Augustin: J Cell Biol 143: 1341-52, 1998) by pipetting 400 HUVEC in a hanging drop on plastic dishes to allow overnight spheroid aggregation. 50 HUVEC spheroids were then seeded in 0.9 ml of a collagen gel and pipetted into individual wells of a 24 well plate to allow polymerization. The test compounds were preincubated with the growth factors (FGF-1, FGF-2 or VEGF-A final concentration 25 ng/mL) in a 10-fold concentrated solution and subsequently, 100 μl of this solution was added on top of the polymerized gel. All compounds were diluted in solvent (DMSO or water) as 100×stocks first (which means 100×stocks of each final assay concentration were prepared in solvent). Subsequently, these stocks were further diluted in medium (resulting in the 13.33×stocks of each final assay concentration) with final concentrations tested: 100, 50, 25, 12.5, 6.25, 3.13 and 1.56×10^−6 M). Plates were incubated at 37° C. for 24 hours and fixed by adding 4% PFA (Roth, Karlsruhe, Germany).
(§7) Quantification of growth factor inhibition: sprouting intensity of HUVEC spheroids treated with the growth factor and the inhibitors were quantitated by an image analysis system determining the cumulative sprout length per spheroid (CSL).

VEGF-A = biological target: T2, VEGF-A (Homo sapiens, UniProt P15692); experiment: VEGF-A induced sprouting of HUVEC, spheroid-based cellular angiogenesis assay; details: VEGF-A 25 ng/mL preincubated with compound, 24 h, read-out: VEGF-A1 IC50
T2 construct: purchased ProQinase GmbH
T2 sequence (P15692 27-191 isoform P15692-4): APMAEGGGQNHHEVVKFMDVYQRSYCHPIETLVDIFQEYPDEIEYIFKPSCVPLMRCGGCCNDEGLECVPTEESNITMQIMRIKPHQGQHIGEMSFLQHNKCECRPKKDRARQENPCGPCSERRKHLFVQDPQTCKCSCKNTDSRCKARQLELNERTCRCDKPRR
Protocol: as §1, §2, §3, §4, §5, §6, §7

VEGFR-2 = biological target: T3, VEGFR-2 (Homo sapiens, UniProt P35968); experiment: VEGF-165 induced phosphorylation of VEGF-Receptor on HUVEC; details: HUVEC preincubated 60 min, VEGF165 25 ng/mL 2 min; read-out: VEGFR-Phosphorylation inhibition IC50
T3 construct: endogenous in cells; host or cells: primary HUVEC
T3 sequence (P35968 20-1356): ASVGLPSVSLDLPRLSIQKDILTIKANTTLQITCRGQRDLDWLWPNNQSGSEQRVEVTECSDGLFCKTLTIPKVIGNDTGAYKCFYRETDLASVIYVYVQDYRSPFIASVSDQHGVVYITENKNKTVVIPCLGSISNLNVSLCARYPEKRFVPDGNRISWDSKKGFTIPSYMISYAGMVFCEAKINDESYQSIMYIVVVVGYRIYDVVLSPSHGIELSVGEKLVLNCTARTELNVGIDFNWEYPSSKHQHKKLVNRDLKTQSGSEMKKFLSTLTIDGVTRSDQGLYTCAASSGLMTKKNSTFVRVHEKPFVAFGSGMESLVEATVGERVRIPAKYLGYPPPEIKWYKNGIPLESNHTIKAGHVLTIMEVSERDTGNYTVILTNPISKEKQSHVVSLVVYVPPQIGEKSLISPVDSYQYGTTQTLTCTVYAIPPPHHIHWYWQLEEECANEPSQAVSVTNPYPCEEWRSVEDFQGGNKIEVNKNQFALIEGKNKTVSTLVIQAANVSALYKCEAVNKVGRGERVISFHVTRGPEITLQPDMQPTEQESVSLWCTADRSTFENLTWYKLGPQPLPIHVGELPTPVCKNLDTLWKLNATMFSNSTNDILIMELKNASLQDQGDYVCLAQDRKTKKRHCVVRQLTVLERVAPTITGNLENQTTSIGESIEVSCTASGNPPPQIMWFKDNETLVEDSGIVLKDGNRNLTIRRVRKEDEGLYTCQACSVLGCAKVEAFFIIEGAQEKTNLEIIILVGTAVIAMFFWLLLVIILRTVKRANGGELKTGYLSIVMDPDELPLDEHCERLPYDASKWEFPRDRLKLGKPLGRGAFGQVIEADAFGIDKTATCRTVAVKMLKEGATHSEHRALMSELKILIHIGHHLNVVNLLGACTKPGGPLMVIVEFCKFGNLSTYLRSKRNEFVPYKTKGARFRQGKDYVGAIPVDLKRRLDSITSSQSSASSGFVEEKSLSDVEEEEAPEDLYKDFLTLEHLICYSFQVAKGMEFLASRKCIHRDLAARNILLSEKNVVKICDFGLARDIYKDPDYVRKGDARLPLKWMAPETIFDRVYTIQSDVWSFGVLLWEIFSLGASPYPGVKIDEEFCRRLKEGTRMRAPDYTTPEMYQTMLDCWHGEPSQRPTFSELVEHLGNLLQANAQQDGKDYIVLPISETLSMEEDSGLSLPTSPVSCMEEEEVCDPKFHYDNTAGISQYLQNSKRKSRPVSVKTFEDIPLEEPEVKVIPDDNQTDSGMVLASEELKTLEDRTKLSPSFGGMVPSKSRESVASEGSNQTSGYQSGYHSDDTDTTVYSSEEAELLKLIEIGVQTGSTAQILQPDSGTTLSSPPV
Protocol: Cell culture: Primary human umbilical vein endothelial cells (HUVECs) were routinely cultured in 0.1% gelatin pre-coated flasks or dishes, up to passage 6. […]
Rabbit primary antibodies for VEGFR-2, p-Tyr1175 were acquired from Cell Signaling Technology (Leiden, The Netherlands). Phospho-VEGFR-2 (Tyr1175) Sandwich ELISA Kit was from Cell Signaling Technology.
[…] Western blot analysis was performed using anti-phospho-VEGFR-2 antibody and total VEGFR-2 was used as a loading control after membrane stripping.
Inhibition of VEGFR-2-phosphorylation results are expressed as IC50 in microM [μM] versus VEGF-treated HUVECs control without inhibitory compound.

Human neutrophils [1] = experiment: Inhibition of ROS production in human neutrophils (isoluminol chemiluminescence); details: fMLP+TNF-α stimulated PMN
Description: NADPH oxidase, located in the plasma membrane and in the membranes of specific granules, produces superoxide anions from which other ROS, such as hydrogen peroxide, singlet oxygen, hypochlorite, and active hydroxyl radicals. ROS are released into the surrounding medium or into a membrane-enclosed subcellular organelle. One quick and sensitive method for measuring the generation of these metabolites is chemiluminescence (CL). Isoluminol amplified CL technique, is very sensitive and widely used to study respiratory burst (mainly extracellular production of ROS) induced in neutrophils.
Human neutrophils were isolated from buffy coats which obtained from healthy donors. The isolated neutrophils (3×10^6/ml) were suspended in Hanks' Balanced Salt Solution (HBSS) with Calcium and Magnesium. Neutrophils were pre-incubated with the compounds at different concentrations (0.1, 0.3, 1, 3 and 10 μM) for 30 min at 37° C. The black 96-well cell culture plates were coated with human fibrinogen (0.25 mg/ml in PBS), and incubated overnight at 4° C. or 2 hr at 37° C. Then the plates were washed with endotoxin-free PBS. The neutrophils were incubated (priming) with TNF-α (20 ng/ml) for 10 minutes at 37° C. Thereupon the 75 μl of cell suspension and 75 μl (Isoluminol+HRP solution) were added to each well. The chemiluminescence was recorded (every 25 sec for 250 sec) after fMLP (1 μM) activation using a Multilabel Reader victor3 (Perkin Elmer, USA). Background values, defined as the mean chemiluminescent values of isoluminol diluted in HBSS, were subtracted from all readings (CPS, count per second). The assays were done in duplicate or triplicate.

Human neutrophils [2] = experiment: Neutrophil adhesion under static conditions; details: fMLP-stimulated adhesion to fibrinogen; method: 40 μM and 80 μM, concentration of the value not stated
Protocol: Human neutrophils obtained from buffy coats of healthy donors were suspended at 3×10^6/ml in adhesion buffer (PBS containing 1 mM CaCl2)/MgCl2 and 10% FCS, pH 7.2). Neutrophils were preincubated for 30 min at 37° C. with 40 μM and 80 μM of the compounds.
Adhesion assays were performed on 18-well glass slides coated for 18 h at 4° C. with human fibrinogen (20 μg/well in endotoxin-free PBS); 20 μl of cell suspension were added to each well and stimulated for 1 min at 37° C. with 5 μl of fMLP 1 nM final concentration. After washing, adherent cells were fixed in glutaraldehyde 1.5% in PBS and counted by computer-assisted enumeration. Statistical analysis was performed by calculating mean and standard deviation (SD); significance was calculated by unpaired t-test. All statistical analyses were performed using GraphPad Prism 6 (GraphPad Software).

FGF-1 = biological target: T4, FGF-1 (Homo sapiens, UniProt P05230); experiment: FGF-1 induced sprouting of HUVEC, spheroid-based cellular angiogenesis assay; details: FGF-1 25 ng/mL preincubated with compound, 24 h
T4 construct: purchased Peprotech 100-17A
T4 sequence (P05230 whole entry): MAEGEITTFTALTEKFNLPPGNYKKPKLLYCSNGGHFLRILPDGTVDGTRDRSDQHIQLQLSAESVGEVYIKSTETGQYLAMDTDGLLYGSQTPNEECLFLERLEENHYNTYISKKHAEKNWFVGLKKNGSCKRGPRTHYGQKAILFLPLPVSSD
Protocol: as §1, §2, §3, §4, §5, §6, §7

[3] = Homo sapiens, Neutrophil, 0.3 μM

SMILES | IC50 (FGF-2) [µM] | IC50 (VEGF-A) [µM] | IC50 (VEGFR-2) [µM] | IC50 (FGF-1) [µM] | IC50 (Human neutrophils [1]; Homo sapiens, Neutrophil) [µM] | inhibition at 0.3 µM (Human neutrophils [1]; [3]) [%] | Neutrophil adhesion inhibition (Human neutrophils [2]) [%] | PMN ROS inhibition at 0.3 μM (Human neutrophils [1]; 0.3 μM) [%]
CCOC(=O)c1cc(O)c(C(=O)Nc2cnccc2C(=O)OCC)cc1O [Ia-023a-E2, ethyl 3-(4-(ethoxycarbonyl)-2,5-dihydroxybenzamido)isonicotinate] | 76 | 141 | 6.6 | – | – | 69.5 | 34 | –
CCOC(=O)c1cc(OC(C)=O)c(C(=O)Nc2ccccc2-c2nnn[nH]2)cc1OC(C)=O [Ia-001a-Tz-E1-A2, ethyl 4-(2-(1H-tetrazol-5-yl)phenylaminocarbonyl)-2,5-diacetoxybenzoate] | ≥ 200 | ≥ 200 | – | 60 | – | 49.9 | 98.2 | –
O=C(O)Cc1cc(O)c(C(=O)Nc2ccccc2C(=O)O)cc1O [IIIa-001a, 2-(4-(carboxymethyl)-2,5-dihydroxybenzamido)benzoic acid] | 10 | 32 | – | 62 | – | 74.8 | 30.4 | –
O=C(O)c1cc(O)c(C(=O)Nc2cnccc2C(=O)O)cc1O [Ia-023a, 3-(4-carboxy-2,5-dihydroxybenzamido)isonicotinic acid] | 63 | 143 | ≥ 100 | – | – | 62 | 13.37 | –
O=C(O)c1cc(O)c(C(=O)NC(C(=O)O)c2ccc(O)c(O)c2)cc1O (centres unmarked) [Ia-036a, 4-(Carboxy(3,4-dihydroxyphenyl)methylaminocarbonyl)-2,5-dihydroxybenzoic acid] | 37 | 123 | 1.6 | – | – | – | 30.77 | 87.17
O=C(O)c1cc(O)c(COCc2cc(O)c(C(=O)O)cc2O)cc1O [IIIc-060a, 4-((2,5-Dihydroxy-4-carboxyphenyl)methoxymethyl)-2,5-dihydroxybenzoic acid] | 51 | 114 | 1.3 | – | – | 86.8 | 41.38 | –
CCOC(=O)Cc1cc(O)c(C(=O)Nc2cc(C(=O)OCC)cc(C(=O)OCC)c2)cc1O [IIIa-015a-E3, diethyl 5-(4-(ethoxycarbonylmethyl)-2,5-dihydroxybenzamido)isophthalate] | 191 | 87 | 7.2 | – | – | 91.4 | 61.22 | –

More lines, main results first:

IC50 (FGF-2) [µM] | IC50 (VEGF-A) [µM] | IC50 (VEGFR-2) [µM] | IC50 (FGF-1) [µM] | IC50 (Human neutrophils [1]; Homo sapiens, Neutrophil) [µM] | SMILES | inhibition at 0.3 µM (Human neutrophils [1]; [3]) [%] | Neutrophil adhesion inhibition (Human neutrophils [2]) [%] | PMN ROS inhibition at 0.3 μM (Human neutrophils [1]; 0.3 μM) [%]
202 | 208 | – | 32 | – | O=C(Nc1ccc(O)cc1C(=O)O)c1cc(O)c(C(=O)Nc2ccc(O)cc2C(=O)O)cc1O [Ic-009a, 2-(2,5-dihydroxy-4-(4-hydroxy-2-carboxyphenylaminocarbonyl)benzamido)-5-hydroxy benzoic acid] | 72.8 | 72.21 | –
43 | 121 | 2.9 | – | – | O=C(O)c1cc(O)ccc1NC(=O)c1cc(O)cc(C(=O)O)c1O [IIa-006a, 3-(2-carboxy-4-hydroxyphenylaminocarbonyl)-2,5-dihydroxybenzoic acid] | 84.3 | 20.29 | –
102 | 28 | – | ≥ 200 | – | O=C(O)c1cc(NC(=O)c2cc(O)cc(C(=O)O)c2O)cc(NC(=O)c2cc(O)cc(C(=O)O)c2O)c1 [IIb-010a, 3,5-Bis(2,5-dihydroxy-3-carboxybenzoylamino)benzoic acid] | 81.9 | 59.84 | –
9.8 | 187 | – | – | – | O=C(O)c1cc(O)cc(C(=O)Nc2ccccc2-c2nnn[nH]2)c1O [IIa-001a-Tz, 3-(2-(1H-tetrazol-5-yl)phenylaminocarbonyl)-2,5-dihydroxybenzoic acid] | 74.2 | 24.18 | –
– | 32 | 3.31 | – | 0.313 | O=C(O)c1ccc(C(=O)O)c(NC(=O)c2cc(O)cc(C(=O)O)c2O)c1 [IIa-012a, 2-(3-carboxy-2,5-dihydroxybenzamido)terephthalic acid] | 44.8 | 7.5 | –
